Source: patent US20240237649A1, “CRYSTALLINE FORMS OF 5-FLUORO-4-IMINO-3-METHYL-1-TOSYL-3,4-DIHYDROPYRIMIDIN-2-ONE, AND MIXTURES, COMPOSITIONS AND METHODS OF USE THEREOF” (Adama Makhteshim Ltd., priority 2021, published 2024)
Blank lines part the entries; values can stand above or below the molecule they belong to.

Assay: Chemical stability: concentration / degradation of compound of Formula I in compositions on storage
[1] = SC composition at pH 4, Table 12

stability in oil dispersion (OD) composition compared with suspension concentrate (SC) composition: more stable
SMILES: Cc1ccc(S(=O)(=O)n2cc(F)c(=N)n(C)c2=O)cc1 [Form III, 5-fluoro-4-imino-3-methyl-1-tosyl-3,4-dihydropyrimidin-2(1H)-one]

SMILES: Cc1ccc(S(=O)(=O)n2cc(F)c(=N)n(C)c2=O)cc1 [compound of Formula I, 5-fluoro-4-imino-3-methyl-1-tosyl-3,4-dihydropyrimidin-2(1H)-one]
amount of the compound of Formula I in the composition, after decrease [1]: 31.1 % by weight based on the total weight of the composition
amount of the compound of Formula I in the composition, before decrease [1]: 44.4 % by weight based on the total weight of the composition

% Water Content (total water in the composition, including free water and water in the hydrate): 0.29%
SMILES: Cc1ccc(S(=O)(=O)n2cc(F)c(=N)n(C)c2=O)cc1 [Hydrate I (45% Hydrate, and 55% Form I Polymorph)] [5-fluoro-4-imino-3-methyl-1-tosyl-3,4-dihydropyrimidin-2(1H)-one]
